According to patent US20150011466A1, “APJ Receptor Compounds” (priority 2012, published 2015):
Like-named read-outs stand apart in the source and are kept apart here. Where a SMILES comes first, the peptide text is derived from it. [ ]: non-standard residue; d: D form. The star is where a group is joined. Lithocholoyl = C[C@H](CCC(=O)*)[C@H]1CC[C@H]2[C@@H]3CC[C@@H]4C[C@H](O)CC[C@]4(C)[C@H]3CC[C@]12C; Palmitoyl = CCCCCCCCCCCCCCCC(=O)*

Legend:
[1] = tested on: Human TRex cells not induced, do not express the APJ receptor; test: HTRF cAMP assay in Human TRex cells not induced (no APJ receptor); format: cell-based
Description: cAMP kits based on a competitive immunoassay using cryptate-labeled anti-cAMP antibody and d2-labeled cAMP were used to assay the effects of APJ compounds of the present invention. This assay measures the increase in intracellular cAMP upon Gs-coupled receptor activation as well as decrease in forskolin (or a more soluble version of forskolin—NKH477) stimulated increase in cAMP upon Gi-coupled receptor activation. […] Cells are treated with lnG/mL doxycycline and seeded in all white 96 well plates @ 40 k/well overnight.

[2] = molecular target: T1, Gi-coupled receptor APJ (Homo sapiens, UniProt P35414); test: HTRF cAMP assay, inhibition of NKH477 stimulated cAMP in HEK cells stably expressing APJ (APJ-h HEK 293 cells); format: cell-based; conditions: for inhibition of NKH477 stimulated increase in cAMP (concentration response curves, FIGS. 1A-1E): HEK cells stably expressing APJ
T1 sequence (P35414 1-380): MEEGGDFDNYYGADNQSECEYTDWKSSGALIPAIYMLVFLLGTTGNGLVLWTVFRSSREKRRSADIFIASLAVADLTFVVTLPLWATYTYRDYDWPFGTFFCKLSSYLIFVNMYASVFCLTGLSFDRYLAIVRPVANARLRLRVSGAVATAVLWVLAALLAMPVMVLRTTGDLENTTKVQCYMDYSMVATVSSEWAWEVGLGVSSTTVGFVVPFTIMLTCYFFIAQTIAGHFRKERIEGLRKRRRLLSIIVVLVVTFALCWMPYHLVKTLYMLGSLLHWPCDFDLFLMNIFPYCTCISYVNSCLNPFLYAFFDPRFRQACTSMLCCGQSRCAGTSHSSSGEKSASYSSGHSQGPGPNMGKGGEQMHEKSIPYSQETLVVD
Description: HTRF (homogeneous time resolved fluorescence) is a technology developed by Cisbio Bioassays based on TR-FRET (time-resolved fluorescence resonance energy transfer). Cisbio Bioassays has developed a wide selection of HTRF-based assays compatible with whole cells, thereby enabling functional assays to run under more physiological conditions. The IP-One assays are competitive immunoassays using cryptate-labeled anti-IP1 monoclonal antibody and d2-labeled IP1. IP1 is a relatively stable downstream metabolite of IP3, and accumulates in cells following Gq receptor activation.
cAMP kits based on a competitive immunoassay using cryptate-labeled anti-cAMP antibody and d2-labeled cAMP were used to assay the effects of APJ compounds of the present invention. […] Cells are treated with […] doxycycline and seeded in all white 96 well plates @ 40 k/well overnight.

[3] = Histimine (% vs. 48/40)
[4] = molecular target: T2, APJ receptor (Homo sapiens, UniProt P35414); test: HTRF cAMP assay, inhibition of NKH477 stimulated cAMP in Human TRex cells expressing APJ upon doxycycline induction (APJ-hTREX); format: cell-based; conditions: for Ranking: class combining EC50 and % histamine; for percent intrinsic activity at 0.3 µM: read-out: % IA (@ 300 nM)
T2 construct: expressed in transfected cells; host or cells: Human TRex cells (doxycycline-inducible)
T2 sequence (P35414 1-380): T1 sequence (P35414 1-380)
Outline: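 Cells stimulated with NKH477 and cAMP measured by HTRF competitive immunoassay (cryptate anti-cAMP antibody, d2-labeled cAMP). APJ-hTREX cells induced with […] doxycycline and seeded overnight at 40 k/well.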

[5] = molecular target: T3, APJ receptor (β-arrestin recruitment) (Homo sapiens, UniProt P35414); test: β-Arrestin signaling assay (DiscoveRx PathHunter, enzyme fragment complementation); format: cell-based; conditions: for β-arrestin recruitment (dose dependent increase in chemiluminescence): in words; for Emax: read-out: β-arrestin Signaling Max Response
T3 sequence (P35414 1-380): T1 sequence (P35414 1-380)
Description: Activation of the β-Arrestin signaling pathway was monitored using the commercially available DiscoveRx PathHunter® assay. This assay employs a homogenous, non-imaging assay format called Enzyme Fragment Complementation (EFC) using β-galactosidase (β-Gal) as the functional reporter. […] EA is fused to β-Arrestin and ED is fused to the GPCR of interest. When the GPCR is activated and β-Arrestin is recruited to the receptor, ED and EA complementation occurs, restoring βGal activity which is measured using chemiluminescent PathHunter® Detection Reagent.

SMILES | inhibition of NKH477 stimulated cAMP [1] | inhibition of NKH477 stimulated increase in cAMP (concentration response curves, FIGS. 1A-1E) [2] | Histimine (% vs. 48/40) [3] | EC50 [4] | Ranking [4] | percent intrinsic activity at 0.3 µM [4] | EC50 [2] | EC50 [5] | β-arrestin recruitment (dose dependent increase in chemiluminescence) [5] | Emax [5] | EC50 ([5]; PathHunter chemiluminescence, read-out: β-arrestin Signaling EC50) | EC50 ([4]; inhibition of NKH477 stimulated cAMP, APJ-hTREX cells, read-out: APJ-hTREX EC50)
CSCC[C@H](NC(=O)[C@@H]1CCCN1C(=O)CNC(=O)[C@H](CCCCN)NC(=O)[C@H](Cc1c[nH]cn1)NC(=O)[C@H](CO)NC(=O)[C@H](CC(C)C)NC(=O)[C@H](CCCNC(=N)N)NC(=O)[C@@H]1CCCN1C(=O)[C@H](CCCNC(=N)N)NC(=O)[C@@H](N)CCC(N)=O)C(=O)N1CCC[C@H]1C(=O)N[C@@H](Cc1ccccc1)C(=O)O [Apelin] | does not inhibit |  |  |  |  |  |  |  |  |  |  | 
CCCCCCCCCCCCCCCC(=O)N[C@H](C(=O)N[C@H](C(=O)N[C@@H](Cc1ccccc1)C(=O)N[C@@H](CCCNC(=N)N)C(=O)N[C@@H](CO)C(=O)N[C@@H](CO)C(=O)N[C@@H](CCC(=O)O)C(=O)N[C@H](CCCCN)C(=O)N[C@@H](CCCNC(=N)N)C(=O)N[C@@H](CCCNC(=N)N)C(=O)N[C@@H](CO)C(=O)N[C@@H](C)C(=O)N[C@@H](CC(=O)O)C(=O)N[C@H](C(=O)N[C@@H](Cc1ccccc1)C(=O)N[C@H](C(N)=O)[C@@H](C)CC)[C@@H](C)CC)C(C)C)[C@@H](C)O [Compound 1] (Palmitoyl-TVFRSSE[dK]RRSADIFI-NH2) |  | in a dose dependent manner | 33% | 56.7 nM | ***** (EC50<100 nM and % histamine<35%) | 81% |  |  |  |  |  | 
CCCCCCCCCCCCCCCC(=O)N[C@H](C(=O)N[C@H](C(=O)N[C@@H](Cc1c[nH]cn1)C(=O)N[C@@H](CCCNC(=N)N)C(=O)N[C@@H](CO)C(=O)N[C@@H](CO)C(=O)N[C@@H](CCC(=O)O)C(=O)N[C@H](CCCCN)C(=O)N[C@@H](CCCNC(=N)N)C(=O)N[C@@H](CCCNC(=N)N)C(=O)N[C@@H](CO)C(=O)N[C@@H](C)C(=O)N[C@@H](CC(=O)O)C(=O)N[C@H](C(=O)N[C@@H](Cc1ccccc1)C(=O)N[C@H](C(N)=O)[C@@H](C)CC)[C@@H](C)CC)C(C)C)[C@@H](C)O [Compound 9] (Palmitoyl-TVHRSSE[dK]RRSADIFI-NH2; C-terminus assumed) |  |  | 36% | 79.6 nM | *** (EC50<100 nM and % histamine>35%) | 75% | 79 nM | 2260 nM | weakly engaged | 22% |  | 
CCCCCCCCCCCCCCCC(=O)N[C@@H](CCC(N)=O)C(=O)N[C@H](C(=O)N[C@@H](Cc1ccccc1)C(=O)N[C@@H](CCCNC(=N)N)C(=O)N[C@@H](CO)C(=O)N[C@@H](CO)C(=O)N[C@@H](CCC(=O)O)C(=O)N[C@H](CCCCN)C(=O)N[C@@H](CCCNC(=N)N)C(=O)N[C@@H](CCCNC(=N)N)C(=O)N[C@@H](CO)C(=O)N[C@@H](C)C(=O)N[C@@H](CC(=O)O)C(=O)N[C@H](C(=O)N[C@@H](Cc1ccccc1)C(=O)N[C@H](C(N)=O)[C@@H](C)CC)[C@@H](C)CC)C(C)C [Compound 20] (Palmitoyl-QVFRSSE[dK]RRSADIFI-NH2) |  | in a dose dependent manner | 29% | 60.7 nM | ***** (EC50<100 nM and % histamine<35%) | 61% |  |  |  |  |  | 
CCCCCCCCCCCCCCCC(=O)N[C@H](C(=O)N[C@H](C(=O)N[C@@H](Cc1ccccc1)C(=O)N[C@@H](CCCNC(=N)N)C(=O)N[C@@H](CO)C(=O)N[C@@H](CCC(N)=O)C(=O)N[C@@H](CCC(=O)O)C(=O)N[C@H](CCCCN)C(=O)N[C@@H](CCCNC(=N)N)C(=O)N[C@@H](CCCNC(=N)N)C(=O)N[C@@H](CO)C(=O)N[C@@H](C)C(=O)N[C@@H](CC(=O)O)C(=O)N[C@H](C(=O)N[C@@H](Cc1ccccc1)C(=O)N[C@H](C(N)=O)[C@@H](C)CC)[C@@H](C)CC)C(C)C)[C@@H](C)O [Compound 24] (Palmitoyl-TVFRSQE[dK]RRSADIFI-NH2) |  | in a dose dependent manner | 22% | 42.6 nM | ***** (EC50<100 nM and % histamine<35%) | 70% |  |  |  |  |  | 
CCCCCCCCCCCCCCCC(=O)NCC(=O)N[C@H](C(=O)N[C@@H](Cc1ccccc1)C(=O)N[C@@H](CCCNC(=N)N)C(=O)N[C@@H](CO)C(=O)N[C@@H](CO)C(=O)N[C@@H](CCC(=O)O)C(=O)N[C@H](CCCCN)C(=O)N[C@@H](CCCNC(=N)N)C(=O)N[C@@H](CCCNC(=N)N)C(=O)N[C@@H](CO)C(=O)N[C@@H](C)C(=O)N[C@@H](CC(=O)O)C(=O)N[C@H](C(=O)N[C@@H](Cc1ccccc1)C(=O)N[C@H](C(N)=O)[C@@H](C)CC)[C@@H](C)CC)C(C)C [Compound 68] (Palmitoyl-GVFRSSE[dK]RRSADIFI-NH2) |  | in a dose dependent manner | 21% | 56.4 nM | ***** (EC50<100 nM and % histamine<35%) | 69% |  |  |  |  |  | 
CCCCCCCCCCCCCCCC(=O)N[C@H](C(=O)N[C@H](C(=O)NCC(=O)N[C@@H](CCCNC(=N)N)C(=O)N[C@@H](CO)C(=O)N[C@@H](CO)C(=O)N[C@@H](CCC(=O)O)C(=O)N[C@H](CCCCN)C(=O)N[C@@H](CCCNC(=N)N)C(=O)N[C@@H](CCCNC(=N)N)C(=O)N[C@@H](CO)C(=O)N[C@@H](C)C(=O)N[C@@H](CC(=O)O)C(=O)N[C@H](C(=O)N[C@@H](Cc1ccccc1)C(=O)N[C@H](C(N)=O)[C@@H](C)CC)[C@@H](C)CC)C(C)C)[C@@H](C)O [Compound 70] (Palmitoyl-TVGRSSE[dK]RRSADIFI-NH2) |  | in a dose dependent manner | 29% | 52.5 nM | ***** (EC50<100 nM and % histamine<35%) | 81% |  |  |  |  |  | 
CC[C@H](C)[C@H](NC(=O)[C@H](Cc1ccccc1)NC(=O)[C@@H](NC(=O)[C@H](CC(=O)O)NC(=O)[C@H](C)NC(=O)[C@H](CO)NC(=O)[C@H](CCCNC(=N)N)NC(=O)[C@H](CCCNC(=N)N)NC(=O)[C@H](CCCCN)NC(=O)[C@H](CCC(=O)O)NC(=O)[C@H](CO)NC(=O)[C@H](CO)NC(=O)[C@H](CCCNC(=N)N)NC(=O)[C@H](CC(=O)O)NC(=O)[C@@H](NC(=O)[C@@H](NC(=O)CC[C@@H](C)[C@H]1CC[C@H]2[C@@H]3CC[C@@H]4C[C@H](O)CC[C@]4(C)[C@H]3CC[C@]12C)[C@@H](C)O)C(C)C)[C@@H](C)CC)C(N)=O [Compound 82] (Lithocholoyl-TVDRSSEKRRSADIFI-NH2; N-terminus assumed) |  |  |  |  |  |  |  |  | weakly engaged | 20% |  | 
CCCCCCCCCCCCCCCC(=O)N[C@H](C(=O)N[C@H](C(=O)N[C@@H](Cc1ccccc1)C(=O)N[C@@H](CCC(N)=O)C(=O)N[C@@H](CO)C(=O)N[C@@H](CCC(=O)O)C(=O)N[C@H](CCCCN)C(=O)N[C@@H](CCCNC(=N)N)C(=O)N[C@@H](CCCNC(=N)N)C(=O)N[C@@H](CO)C(=O)N[C@@H](C)C(=O)N[C@@H](CC(=O)O)C(=O)N[C@@H](CCC(N)=O)C(=O)N[C@@H](Cc1ccccc1)C(=O)N[C@H](C(N)=O)[C@@H](C)CC)C(C)C)[C@@H](C)O [Compound 87] (Palmitoyl-TVFQSE[dK]RRSADQFI-NH2; C-terminus assumed) |  |  | 48% |  | *** (EC50<100 nM and % histamine>35%) |  |  |  | weakly engaged | 47% | 34.4 nM | 11 nM
